A word on the pKa: it is the negative logarithm of the acid dissociation constant.

The target in one data set is CAIX (Homo sapiens, UniProt Q16790). The experiment in a line: fluorescent thermal shift assay (FTSA), CAIX. The format is binding. The conditions noted are these: for ΔGobs CAIX: pH 7.
A further data set addresses CAXIV (Homo sapiens, UniProt Q9ULX7). In words: fluorescent thermal shift assay (FTSA), CAXIV. The class given is binding. The following applies: 37 °C; for ΔGintr CAXIV: converted from Kd_intr, independent of pH; for ΔGobs CAXIV: converted from Kd_obs, pH 7.0, FTSA.
In a further data set the target is CAII (Homo sapiens, UniProt P00918). The experiment in a line: fluorescent thermal shift assay (FTSA), CAII. The following applies: 37 °C; for ΔGintr CAII: converted from Kd_intr, independent of pH; for ΔGobs CAII: converted from Kd_obs, pH 7.0, FTSA. The format is binding.
In another data set the target is CAVB (Homo sapiens, UniProt Q9Y2D0). The experiment in a line: fluorescent thermal shift assay (FTSA), CAVB. The class given is binding. The conditions noted are these: 37 °C; for ΔGobs CAVB: converted from Kd_obs, pH 7.0, FTSA; for ΔGintr CAVB: converted from Kd_intr, independent of pH.
CAVB, sequence (Q9Y2D0 34-317): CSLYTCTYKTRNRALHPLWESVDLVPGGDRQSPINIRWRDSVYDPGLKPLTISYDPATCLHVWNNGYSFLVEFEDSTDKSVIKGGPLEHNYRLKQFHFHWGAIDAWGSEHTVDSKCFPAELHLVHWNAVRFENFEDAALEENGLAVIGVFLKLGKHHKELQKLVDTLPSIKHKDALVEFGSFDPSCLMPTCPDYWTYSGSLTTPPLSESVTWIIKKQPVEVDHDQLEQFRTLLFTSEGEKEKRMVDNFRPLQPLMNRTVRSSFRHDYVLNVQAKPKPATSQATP
In a further data set the target is CAVA (Homo sapiens, UniProt P35218). In words: fluorescent thermal shift assay (FTSA), CAVA. The following applies: 37 °C; for ΔGintr CAVA: converted from Kd_intr, independent of pH; for ΔGobs CAVA: converted from Kd_obs, pH 7.0, FTSA. The class given is binding.
CAVA, sequence (P35218 39-305): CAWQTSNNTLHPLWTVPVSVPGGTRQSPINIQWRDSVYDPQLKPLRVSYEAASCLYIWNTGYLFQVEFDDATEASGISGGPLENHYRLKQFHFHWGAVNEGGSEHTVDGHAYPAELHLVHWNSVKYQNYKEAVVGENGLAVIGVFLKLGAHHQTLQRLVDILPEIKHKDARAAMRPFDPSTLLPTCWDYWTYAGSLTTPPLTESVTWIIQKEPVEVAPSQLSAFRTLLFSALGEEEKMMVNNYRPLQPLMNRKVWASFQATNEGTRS
The next data set has as its target CAXIII (Homo sapiens, UniProt Q8N1Q1). In words: fluorescent thermal shift assay (FTSA), CAXIII. The format is binding. The following applies: 37 °C; for ΔGintr CAXIII: converted from Kd_intr, independent of pH; for ΔGobs CAXIII: converted from Kd_obs, pH 7.0, FTSA.
Data set [1] in a line: determination of pKa of the sulfonamide group by UV-VIS spectra at various pH. The class given is physicochemical. The conditions noted are these: for f RSO2NH-, fraction of deprotonated sulfonamide: at pH 7.0, calculated from pKa; for pKa: calculated from spectra at various pH, 37 °C.
For a further data set, the target named is CAIII (Homo sapiens, UniProt P07451). The experiment in a line: fluorescent thermal shift assay (FTSA), CAIII. The format is binding. The conditions noted are these: 37 °C; for ΔGintr CAIII: converted from Kd_intr, independent of pH; for ΔGobs CAIII: converted from Kd_obs, pH 7.0, FTSA.
CAIII, sequence (P07451 whole entry): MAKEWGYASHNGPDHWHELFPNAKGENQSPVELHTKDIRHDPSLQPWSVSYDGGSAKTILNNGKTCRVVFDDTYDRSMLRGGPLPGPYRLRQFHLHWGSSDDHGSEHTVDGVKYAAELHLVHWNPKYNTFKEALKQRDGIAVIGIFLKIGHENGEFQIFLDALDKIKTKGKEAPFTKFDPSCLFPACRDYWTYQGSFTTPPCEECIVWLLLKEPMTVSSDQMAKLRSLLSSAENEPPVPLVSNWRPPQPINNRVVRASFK
Another data set addresses CAI (Homo sapiens, UniProt P00915). The experiment in a line: fluorescent thermal shift assay (FTSA), CAI. The following applies: 37 °C; for ΔGintr CAI: converted from Kd_intr, independent of pH; for ΔGobs CAI: converted from Kd_obs, pH 7.0, FTSA. The format is binding.
The target of the next data set is CAVI (Homo sapiens, UniProt P23280). In words: fluorescent thermal shift assay (FTSA), CAVI. The format is binding. The conditions noted are these: 37 °C; for ΔGintr CAVI: converted from Kd_intr, independent of pH; for ΔGobs CAVI: converted from Kd_obs, pH 7.0, FTSA.
CAVI, sequence (P23280 18-308): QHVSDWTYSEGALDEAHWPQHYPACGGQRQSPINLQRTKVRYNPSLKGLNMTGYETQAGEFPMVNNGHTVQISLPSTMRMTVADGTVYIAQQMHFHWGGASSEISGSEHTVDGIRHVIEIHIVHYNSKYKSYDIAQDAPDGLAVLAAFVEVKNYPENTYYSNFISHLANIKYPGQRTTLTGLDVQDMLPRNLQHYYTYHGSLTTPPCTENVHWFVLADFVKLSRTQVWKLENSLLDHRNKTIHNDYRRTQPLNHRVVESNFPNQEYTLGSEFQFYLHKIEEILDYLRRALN
The next data set addresses CAVII (Homo sapiens, UniProt P43166). The experiment in a line: fluorescent thermal shift assay (FTSA), CAVII. The format is binding. The conditions noted are these: 37 °C; for ΔGintr CAVII: converted from Kd_intr, independent of pH; for ΔGobs CAVII: converted from Kd_obs, pH 7.0, FTSA.

CAXIII, sequence (Q8N1Q1 whole entry): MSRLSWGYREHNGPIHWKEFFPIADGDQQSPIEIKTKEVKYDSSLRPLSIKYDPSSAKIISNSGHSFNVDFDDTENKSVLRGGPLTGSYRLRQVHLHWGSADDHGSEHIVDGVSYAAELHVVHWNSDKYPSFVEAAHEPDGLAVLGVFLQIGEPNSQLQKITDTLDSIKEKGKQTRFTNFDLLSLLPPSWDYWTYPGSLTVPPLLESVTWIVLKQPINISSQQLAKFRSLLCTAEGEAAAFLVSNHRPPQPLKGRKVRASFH
CAVII, sequence (P43166 whole entry): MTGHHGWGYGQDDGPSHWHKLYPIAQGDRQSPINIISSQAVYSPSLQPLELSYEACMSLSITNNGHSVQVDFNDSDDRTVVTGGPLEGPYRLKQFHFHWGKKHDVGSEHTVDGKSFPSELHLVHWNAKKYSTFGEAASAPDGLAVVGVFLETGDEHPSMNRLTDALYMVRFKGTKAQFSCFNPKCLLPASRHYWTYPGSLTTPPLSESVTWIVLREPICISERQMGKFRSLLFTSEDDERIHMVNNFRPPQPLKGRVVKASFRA
CAXIV, sequence (Q9ULX7 16-337): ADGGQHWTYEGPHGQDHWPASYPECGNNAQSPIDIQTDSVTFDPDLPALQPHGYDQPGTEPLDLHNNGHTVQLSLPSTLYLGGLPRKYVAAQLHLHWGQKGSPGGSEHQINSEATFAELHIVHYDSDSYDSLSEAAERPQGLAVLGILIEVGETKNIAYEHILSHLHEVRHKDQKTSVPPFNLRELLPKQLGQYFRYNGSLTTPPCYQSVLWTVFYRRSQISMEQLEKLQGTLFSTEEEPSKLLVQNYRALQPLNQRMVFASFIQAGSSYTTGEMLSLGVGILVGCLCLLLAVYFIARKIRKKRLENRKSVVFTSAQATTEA
CAI, sequence (P00915 whole entry): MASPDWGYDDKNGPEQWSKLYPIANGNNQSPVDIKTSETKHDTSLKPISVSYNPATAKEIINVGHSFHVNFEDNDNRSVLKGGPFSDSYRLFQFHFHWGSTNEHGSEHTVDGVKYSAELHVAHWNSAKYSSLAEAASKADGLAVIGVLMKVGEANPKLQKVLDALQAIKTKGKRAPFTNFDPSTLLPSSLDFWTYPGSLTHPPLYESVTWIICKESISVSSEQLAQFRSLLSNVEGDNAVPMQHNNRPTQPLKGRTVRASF

`COC(=O)c1cc(S(N)(=O)=O)c(Cl)cc1S(=O)(=O)CCc1ccccc1` [Compound 9d, Methyl 4-chloro-2-(2-phenylethylsulfonyl)-5-sulfamoylbenzoate]: the “ΔGobs CAIX” value at CAIX was -12.2 kcal/mol. At CAXIV, the “ΔGintr CAXIV” value was -15.2 kcal/mol and the “ΔGobs CAXIV” value is -12.6 kcal/mol. On CAII, the “ΔGintr CAII” value was -15 kcal/mol and the “ΔGobs CAII” value was -12.5 kcal/mol. Moreover, the “ΔGobs CAVB” value at CAVB was -12.7 kcal/mol. Moreover, at CAVA, the “ΔGintr CAVA” value was -11.8 kcal/mol and the “ΔGobs CAVA” value was -9.51 kcal/mol. Also, on CAXIII, the “ΔGintr CAXIII” value is -14.2 kcal/mol and the “ΔGobs CAXIII” value is -12.1 kcal/mol. Also, in [1], the “f RSO2NH-, fraction of deprotonated sulfonamide” value (“f RSO2NH-, fraction” below) is on record as 3.8% and the pKa is 8.4. At CAIII, the “ΔGintr CAIII” value was -11.4 kcal/mol and the “ΔGobs CAIII” value is -8.56 kcal/mol. At CAI, the “ΔGintr CAI” value was -11.3 kcal/mol and the “ΔGobs CAI” value was -9.2 kcal/mol. In addition, at CAVI, the “ΔGintr CAVI” value is -14.2 kcal/mol and the “ΔGobs CAVI” value is -10.8 kcal/mol. On CAVII, the “ΔGintr CAVII” value was -15.5 kcal/mol and the “ΔGobs CAVII” value is -12.9 kcal/mol.

With `COC(=O)c1cc(S(N)(=O)=O)c(SCc2ccccc2)cc1Cl` [Compound 3c, Methyl 4-(benzylsulfanyl)-2-chloro-5-sulfamoylbenzoate], at CAIX, the “ΔGintr CAIX” value was -16.4 kcal/mol and the “ΔGobs CAIX” value was -12.1 kcal/mol. Moreover, on CAXIV, the “ΔGintr CAXIV” value was -14.6 kcal/mol and the “ΔGobs CAXIV” value is -10.5 kcal/mol. For the same compound, at CAII, the “ΔGintr CAII” value is -13.9 kcal/mol and the “ΔGobs CAII” value was -9.87 kcal/mol. At CAVB, the “ΔGintr CAVB” value is -11.5 kcal/mol and the “ΔGobs CAVB” value is -7.53 kcal/mol. On CAVA, the “ΔGintr CAVA” value was at least -9.06 kcal/mol and the “ΔGobs CAVA” value is at least -5.26 kcal/mol. For the same compound, on CAXIII, the “ΔGintr CAXIII” value is -14.1 kcal/mol and the “ΔGobs CAXIII” value is -10.5 kcal/mol. In addition, in data set [1], the “f RSO2NH-, fraction” value is given as 0.3% and the pKa is 9.5. Moreover, on CAIII, the “ΔGintr CAIII” value was -10.3 kcal/mol and the “ΔGobs CAIII” value was -5.81 kcal/mol. On CAI, the “ΔGintr CAI” value is -10.9 kcal/mol and the “ΔGobs CAI” value was -7.31 kcal/mol. Further, on CAVI, the “ΔGintr CAVI” value was -14.2 kcal/mol and the “ΔGobs CAVI” value was -9.15 kcal/mol. Moreover, on CAVII, the “ΔGintr CAVII” value is -13.8 kcal/mol and the “ΔGobs CAVII” value was -9.68 kcal/mol.

For the compound `COC(=O)c1cc(S(N)(=O)=O)c(Br)cc1S(=O)(=O)c1ccccc1` [Compound 10a, Methyl 2-(benzenesulfonyl)-4-bromo-5-sulfamoylbenzoate], at CAIX, the “ΔGintr CAIX” value is -62.0 and the “ΔGobs CAIX” value was -12 kcal/mol. Moreover, on CAXIV, the “ΔGintr CAXIV” value was -14.9 kcal/mol and the “ΔGobs CAXIV” value is -12.3 kcal/mol. At CAII, the “ΔGintr CAII” value is -14.8 kcal/mol and the “ΔGobs CAII” value is -12.3 kcal/mol. Moreover, on CAVB, the “ΔGintr CAVB” value is -14.2 kcal/mol and the “ΔGobs CAVB” value was -11.8 kcal/mol. On CAXIII, the “ΔGintr CAXIII” value is -13.9 kcal/mol and the “ΔGobs CAXIII” value is -11.9 kcal/mol. In [1], the “f RSO2NH-, fraction” value was 3.8% and the pKa is 8.4. Also, at CAI, the “ΔGintr CAI” value was -11.3 kcal/mol and the “ΔGobs CAI” value was -9.2 kcal/mol. In addition, on CAVI, the “ΔGintr CAVI” value is -13.4 kcal/mol and the “ΔGobs CAVI” value was -9.89 kcal/mol. At CAVII, the “ΔGintr CAVII” value was -15.6 kcal/mol and the “ΔGobs CAVII” value was -13 kcal/mol.

Source of the values: paper PMC8745178, “Methyl 2-Halo-4-Substituted-5-Sulfamoyl-Benzoates as High Affinity and Selective Inhibitors of Carbonic Anhydrase IX” (International Journal of Molecular Sciences, 2021).
